# Legend:
# Experiment in all cases: B2 Post-Emergence Efficacy - Test 2
# Type in all cases: in vivo
# Conditions in all cases: 15 days after application, 0-100 scale
# [1] = test system: Alopecurus myosuroides (ALOMY)
# Outline: (§1)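 Herbicidal effect was rated visually from 0 (no damage) to 100 (complete kill) fifteen days after treatment. Seedlings had been raised for 12 days under controlled glasshouse conditions and then sprayed with the active ingredient formulated in IF50, diluted in water with 0.2% v/v Genapol X080 adjuvant.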
# Bidens pilosa (BIDPI) = test system: Bidens pilosa (BIDPI)
# Outline: as §1
# Hordeum vulgare (HORVW) = test system: Hordeum vulgare (HORVW)
# Outline: as §1
# [2] = test system: Polygonum convolvulus (POLCO)
# Outline: as §1
SMILES,Herbicidal activity ALOMY ([1]; 15 g/Ha),Herbicidal activity ALOMY ([1]; 30 g/Ha),Herbicidal activity ALOMY ([1]; 60 g/Ha),Herbicidal activity ALOMY ([1]; 125 g/Ha),Herbicidal activity ALOMY ([1]; 250 g/Ha),Herbicidal activity ALOMY ([1]; 500 g/Ha),Herbicidal activity BIDPI (Bidens pilosa (BIDPI); 15 g/Ha),Herbicidal activity BIDPI (Bidens pilosa (BIDPI); 30 g/Ha),Herbicidal activity BIDPI (Bidens pilosa (BIDPI); 60 g/Ha),Herbicidal activity BIDPI (Bidens pilosa (BIDPI); 125 g/Ha),Herbicidal activity BIDPI (Bidens pilosa (BIDPI); 250 g/Ha),Herbicidal activity BIDPI (Bidens pilosa (BIDPI); 500 g/Ha),Herbicidal activity HORVW (Hordeum vulgare (HORVW); 15 g/Ha),Herbicidal activity HORVW (Hordeum vulgare (HORVW); 30 g/Ha),Herbicidal activity HORVW (Hordeum vulgare (HORVW); 60 g/Ha),Herbicidal activity HORVW (Hordeum vulgare (HORVW); 125 g/Ha),Herbicidal activity HORVW (Hordeum vulgare (HORVW); 250 g/Ha),Herbicidal activity HORVW (Hordeum vulgare (HORVW); 500 g/Ha),Herbicidal activity POLCO ([2]; 15 g/Ha),Herbicidal activity POLCO ([2]; 60 g/Ha),also measured
"Cc1nn(C)c(=O)c(-c2c(F)ccc(Cl)c2CCc2ccc(Cl)cc2)c1OC(=O)C(C)C [Compound 1.089, [5-[3-chloro-2-[2-(4-chlorophenyl)ethyl]-6-fluoro-phenyl]-1,3-dimethyl-6-oxo-pyridazin-4-yl] 2-methylpropanoate]",20,50,50,80,80,90,70,60,70,80,80,100,10,10,20,20,30,60,–,–,–
"Cc1nn(C)c(=O)c(-c2c(F)ccc(Cl)c2CCc2ccc(C(F)(F)F)nc2)c1O [Compound 1.042, 4-[3-chloro-6-fluoro-2-[2-[6-(trifluoromethyl)-3-pyridyl]ethyl]phenyl]-5-hydroxy-2,6-dimethyl-pyridazin-3-one]",20,60,80,80,90,90,70,70,70,70,80,90,10,20,20,40,80,80,80,90,Herbicidal activity POLCO ([2]; 30 g/Ha): 80; Herbicidal activity POLCO ([2]; 125 g/Ha): 90; Herbicidal activity POLCO ([2]; 250 g/Ha): 90; Herbicidal activity POLCO ([2]; 500 g/Ha): 100
"Cc1nn(C)c(=O)c(-c2c(F)ccc(Cl)c2CCc2ccc(C#N)cc2)c1O [Compound 1.024, 4-[3-chloro-6-fluoro-2-[2-[4-(cyano)phenyl]ethyl]phenyl]-5-hydroxy-2,6-dimethyl-pyridazin-3-one]",10,30,50,70,70,70,80,80,80,80,80,90,0,10,10,10,10,20,80,90,Herbicidal activity POLCO ([2]; 125 g/Ha): 90; Herbicidal activity POLCO ([2]; 250 g/Ha): 90; Herbicidal activity POLCO ([2]; 500 g/Ha): 100
"Cc1nn(C)c(=O)c(-c2c(F)ccc(Cl)c2CCc2ccc(F)cc2)c1OC(=O)C(C)C [Compound 1.125, [5-[3-chloro-6-fluoro-2-[2-(4-fluorophenyl)ethyl]phenyl]-1,3-dimethyl-6-oxo-pyridazin-4-yl] 2-methylpropanoate]",10,10,30,30,60,40,60,60,70,70,80,100,0,0,10,10,10,10,90,90,Herbicidal activity POLCO ([2]; 30 g/Ha): 90; Herbicidal activity POLCO ([2]; 125 g/Ha): 90; Herbicidal activity POLCO ([2]; 250 g/Ha): 90; Herbicidal activity POLCO ([2]; 500 g/Ha): 90
"Cc1nn(C)c(=O)c(-c2c(F)ccc(Cl)c2CCc2ccc(F)cc2)c1O [Compound 1.048, 4-[3-chloro-6-fluoro-2-[2-(4-fluorophenyl)ethyl]phenyl]-5-hydroxy-2,6-dimethyl-pyridazin-3-one]",20,30,70,80,80,90,70,70,70,70,100,100,10,10,10,40,40,80,60,90,Herbicidal activity POLCO ([2]; 30 g/Ha): 70; Herbicidal activity POLCO ([2]; 125 g/Ha): 90; Herbicidal activity POLCO ([2]; 250 g/Ha): 90; Herbicidal activity POLCO ([2]; 500 g/Ha): 90
"Cc1nn(C)c(=O)c(-c2c(F)ccc(Cl)c2CCc2ccccc2C(F)(F)F)c1O [Compound 1.066, 4-[3-chloro-6-fluoro-2-[2-[2-(trifluoromethyl)phenyl]ethyl]phenyl]-5-hydroxy-2,6-dimethyl-pyridazin-3-one]",20,50,70,80,90,90,50,60,70,80,90,90,0,10,20,70,80,90,70,90,Herbicidal activity POLCO ([2]; 30 g/Ha): 80; Herbicidal activity POLCO ([2]; 125 g/Ha): 90; Herbicidal activity POLCO ([2]; 250 g/Ha): 100; Herbicidal activity POLCO ([2]; 500 g/Ha): 100

# Reference: patent publication US20230301300A1, “HERBICIDAL COMPOSITIONS” (SYNGENTA CROP PROTECTION AG, priority 2020, published 2023)
